Measured values: PubChem BioAssay (NCI)
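In this assay, cells in 96-well plates receive the compound at five concentrations for 48 hours. Endpoints are linearly interpolated between the surrounding concentrations. TGI: total growth inhibition.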

Legend:
Test in all cases: NCI-60 cell line screen, 48 h
786-0 renal = system: 786-0 renal
A498 renal = system: A498 renal
A549 NSCLC = system: A549 NSCLC
ACHN renal = system: ACHN renal
BT-549 breast = system: BT-549 breast
CAKI-1 renal = system: CAKI-1 renal
CCRF-CEM leukemia = system: CCRF-CEM leukemia
COLO 205 colon = system: COLO 205 colon
DU-145 prostate = system: DU-145 prostate
EKVX NSCLC = system: EKVX NSCLC
HCC-2998 colon = system: HCC-2998 colon
HCT-116 colon = system: HCT-116 colon
HCT-15 colon = system: HCT-15 colon
HL-60(TB) leukemia = system: HL-60(TB) leukemia
HOP-62 NSCLC = system: HOP-62 NSCLC
HOP-92 NSCLC = system: HOP-92 NSCLC
HS 578T breast = system: HS 578T breast
HT29 colon = system: HT29 colon
IGROV1 ovarian = system: IGROV1 ovarian
K-562 leukemia = system: K-562 leukemia
KM12 colon = system: KM12 colon
LOX IMVI melanoma = system: LOX IMVI melanoma
M14 melanoma = system: M14 melanoma
MALME-3M melanoma = system: MALME-3M melanoma
MCF7 breast = system: MCF7 breast
MDA-MB-231 breast = system: MDA-MB-231 breast
MDA-MB-435 = system: MDA-MB-435
MDA-N = system: MDA-N
MOLT-4 leukemia = system: MOLT-4 leukemia
NCI-H226 lung = system: NCI-H226 lung
NCI-H23 lung = system: NCI-H23 lung
NCI-H460 lung = system: NCI-H460 lung
NCI-H522 lung = system: NCI-H522 lung
NCI/ADR-RES ovarian = system: NCI/ADR-RES ovarian
OVCAR-3 ovarian = system: OVCAR-3 ovarian
OVCAR-4 ovarian = system: OVCAR-4 ovarian
OVCAR-5 ovarian = system: OVCAR-5 ovarian
OVCAR-8 ovarian = system: OVCAR-8 ovarian
PC-3 prostate = system: PC-3 prostate
RPMI-8226 leukemia = system: RPMI-8226 leukemia
RXF 393 renal = system: RXF 393 renal
SF-268 CNS = system: SF-268 CNS
SF-295 CNS = system: SF-295 CNS
SF-539 CNS = system: SF-539 CNS
SK-MEL-2 melanoma = system: SK-MEL-2 melanoma
SK-MEL-28 melanoma = system: SK-MEL-28 melanoma
SK-MEL-5 melanoma = system: SK-MEL-5 melanoma
SK-OV-3 ovarian = system: SK-OV-3 ovarian
SN12C renal = system: SN12C renal
SNB-19 CNS = system: SNB-19 CNS
SNB-75 CNS = system: SNB-75 CNS
SW-620 colon = system: SW-620 colon
T-47D breast = system: T-47D breast
TK-10 renal = system: TK-10 renal
U251 CNS = system: U251 CNS
UACC-257 melanoma = system: UACC-257 melanoma
UACC-62 melanoma = system: UACC-62 melanoma
UO-31 renal = system: UO-31 renal

SMILES: C=C1C(=O)O[C@@H]2[C@@H]3O[C@@H](C[C@@H]13)[C@](C)(O)CC/C=C(\C)CCC[C@@H]2C
- TGI (786-0 renal): 18.9 µM
- TGI (A498 renal): 26.2 µM
- TGI (A549 NSCLC): 34.3 µM
- TGI (ACHN renal): 21.2 µM
- TGI (BT-549 breast): 27.5 µM
- TGI (CAKI-1 renal): 28.6 µM
- TGI (CCRF-CEM leukemia): 34.8 µM
- TGI (COLO 205 colon): 31.5 µM
- TGI (DU-145 prostate): 29.6 µM
- TGI (EKVX NSCLC): 32 µM
- TGI (HCC-2998 colon): 32.7 µM
- TGI (HCT-116 colon): 21.2 µM
- TGI (HCT-15 colon): 33.4 µM
- TGI (HL-60(TB) leukemia): 10.4 µM
- TGI (HOP-62 NSCLC): 30.5 µM
- TGI (HOP-92 NSCLC): 29.3 µM
- TGI (HS 578T breast): 37.8 µM
- TGI (HT29 colon): > 100 µM
- TGI (IGROV1 ovarian): 22.6 µM
- TGI (K-562 leukemia): 85.5 µM
- TGI (KM12 colon): 43.1 µM
- TGI (LOX IMVI melanoma): 19.2 µM
- TGI (M14 melanoma): 27 µM
- TGI (MALME-3M melanoma): 26.8 µM
- TGI (MCF7 breast): 22.1 µM
- TGI (MDA-MB-231 breast): 37.5 µM
- TGI (MDA-MB-435): 24.9 µM
- TGI (MDA-N): 18.3 µM
- TGI (MOLT-4 leukemia): > 100 µM
- TGI (NCI-H226 lung): 36.1 µM
- TGI (NCI-H23 lung): 28 µM
- TGI (NCI-H460 lung): 30.8 µM
- TGI (NCI-H522 lung): 20.1 µM
- TGI (NCI/ADR-RES ovarian): 38.5 µM
- TGI (OVCAR-3 ovarian): 25.8 µM
- TGI (OVCAR-4 ovarian): 29.6 µM
- TGI (OVCAR-5 ovarian): 48 µM
- TGI (OVCAR-8 ovarian): 22.2 µM
- TGI (PC-3 prostate): 22.9 µM
- TGI (RPMI-8226 leukemia): 20.6 µM
- TGI (RXF 393 renal): 30.1 µM
- TGI (SF-268 CNS): 43.9 µM
- TGI (SF-295 CNS): 44.7 µM
- TGI (SF-539 CNS): 24.9 µM
- TGI (SK-MEL-2 melanoma): 27.7 µM
- TGI (SK-MEL-28 melanoma): 33.3 µM
- TGI (SK-MEL-5 melanoma): 30.6 µM
- TGI (SK-OV-3 ovarian): 34 µM
- TGI (SN12C renal): 25.3 µM
- TGI (SNB-19 CNS): 29.8 µM
- TGI (SNB-75 CNS): 26.1 µM
- TGI (SW-620 colon): 38.4 µM
- TGI (T-47D breast): 43.9 µM
- TGI (TK-10 renal): 27.7 µM
- TGI (U251 CNS): 22.8 µM
- TGI (UACC-257 melanoma): 27 µM
- TGI (UACC-62 melanoma): 25.4 µM
- TGI (UO-31 renal): 23 µM
